Assay results published in patent US11964970B1, “7-(4-((5-(3-bromobenzylideneamino)-2-thioxo-1,3,4-thiadiazol-3(2H)-yl)methyl)piperazin-1-yl)-1-cyclopropyl-6-fluoro-4-oxo-1,4-dihydroquinoline-3-carboxylic acid as an anti-inflammatory and anticancer compound” (KING FAISAL UNIVERSITY, priority 2023, dated 2024).

Columns and labels:
[1] = test system: human prostate cancer cells (PC3); assay: Assessment of cytotoxicity by SRB assay, PC3; format: cell-based; details: androgen-independent metastatic human prostate cancer cells (PC3), 72 h, 0.01 μM to 100 μM
Experimental: (§1) The human prostate cancer cells (PC3) and human osteosarcoma cells (MG-63) were obtained from Nawah Scientific Inc. (Mokatam, Cairo, Egypt) and cultured in DMEM (Dulbecco's modified eagle's medium), Gibco, USA, supplemented with fetal bovine serum (FBS) at a concentration of 10% and 100 U/mL of penicillin and streptomycin (PS). The Cells were incubated at 37° C. in a humidified environment that contained 5% CO2.
(§2) Cells were seeded in 96-well plates as aliquots of 100 μL cell suspension and incubated in a complete media for 24 h. afterward, cells were treated with N′-(1-naphthoyloxy)-2-(benzo[d]thiazol-2-yl)acetimidamide at diverse concentrations ranging from 0.01 μM to 100 μM for 72 h. Then, cells were fixed at 4° C. for one hour with 150 μL of 10% trichloroacetic acid (TCA). After washing the cells five times with distilled water, 70 μL of sulforhodamine (SRB) solution (0.4% w/v) was added and incubated for 10 min at room temperature in a dark place. […] Then, 150 μL of Tris pH 10.5 (10 mM) was added, and the absorbance was measured at 540 nm using a BMG LABTECH®-FLUOstar Omega microplate reader (Ortenberg, Germany). Half maximal inhibitory concentrations (IC50) values were calculated for each experiment using GraphPad Prism 6 software. […]
(§3) The inhibition was calculated using the following equation: Inhibition %=100−Average Viability

[2] = test system: human osteosarcoma cells (MG-63); assay: Assessment of cytotoxicity by SRB assay, MG-63; format: cell-based; details: osteosarcoma (MG-63) cells, 72 h, 0.01 μM to 100 μM
Experimental: as §1, §2, §3

[3] = target: Bovine Serum Albumin (Bos taurus, UniProt P02769); assay: Bovine Serum Albumin Assay (BSA), inhibition of protein denaturation; format: biochemical; details: BSA 0.4% w/v, pH 6.4, 72° C. for 10 minutes, 20-100 μg/mL, turbidity at 660 nm
Experimental: In vitro-inflammatory activities of the tested samples were determined using a modified method of the BSA assay reported by Williams et al. BSA solution (0.4%, w/v) was prepared in Tris Buffered Saline. The pH was adjusted to 6.4 with glacial acetic acid. Different dilutions of 20, 40, 60, 80, and 100 μg/mL of the stock solutions were added to test tubes containing 1 mL of 0.4%, w/v BSA buffer solution. Both negative (solvent) and positive (aspirin) controls were assayed in a similar manner. The solutions were then heated in a water bath at 72° C. for 10 minutes and cooled for 20 minutes under laboratory conditions. The turbidity of the solutions (level of protein precipitation) was measured at 660 nm in Spectrophotometer (V-770 UV-Visible/NIR Spectrophotometer).
The percentage inhibition of precipitation (protein denaturation) was determined relative to the negative control using the following equation:
[formula] % Anti-Denaturation Activity=% Inhibition of Protein Denaturation=% Anti-inflammatory Activity

Sequence of Bovine Serum Albumin (P02769 25-607): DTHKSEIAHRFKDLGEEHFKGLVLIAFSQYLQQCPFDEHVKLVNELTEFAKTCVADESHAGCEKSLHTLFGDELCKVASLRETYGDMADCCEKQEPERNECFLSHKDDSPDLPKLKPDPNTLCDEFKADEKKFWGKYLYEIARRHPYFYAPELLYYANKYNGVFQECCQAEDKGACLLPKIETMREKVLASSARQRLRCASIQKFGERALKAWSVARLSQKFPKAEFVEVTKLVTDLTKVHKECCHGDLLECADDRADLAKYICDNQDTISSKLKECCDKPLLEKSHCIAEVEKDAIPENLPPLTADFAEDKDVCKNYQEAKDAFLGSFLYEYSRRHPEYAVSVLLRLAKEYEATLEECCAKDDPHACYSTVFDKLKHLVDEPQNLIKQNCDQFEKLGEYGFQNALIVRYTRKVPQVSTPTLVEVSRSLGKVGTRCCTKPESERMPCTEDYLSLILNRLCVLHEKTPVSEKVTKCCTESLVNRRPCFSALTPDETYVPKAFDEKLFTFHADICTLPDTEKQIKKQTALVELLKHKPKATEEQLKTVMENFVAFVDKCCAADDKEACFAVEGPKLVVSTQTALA

SMILES: O=C(O)c1cn(C2CC2)c2cc(N3CCN(Cn4nc(/N=C/c5cccc(Br)c5)sc4=S)CC3)c(F)cc2c1=O [7-(4-((5-(3-bromobenzylideneamino)-2-thioxo-1,3,4-thiadiazol-3(2H)-yl)methyl)piperazin-1-yl)-1-cyclopropyl-6-fluoro-4-oxo-1,4-dihydroquinoline-3-carboxylic acid]
- antiproliferative activity against PC3 cells [1]: excellent antiproliferative activities
- melting point: 251 to 253 °C
- antiproliferative activity against MG-63 cells [2]: excellent antiproliferative activities
- in vitro anti-inflammatory activity (inhibition of protein denaturation) [3]: considerable anti-inflammatory effect
